Measured values taken from ChEMBL document CHEMBL3991601, “The target landscape of clinical kinase drugs” (Science, 2017).
Active and inactive are the calls of the source.

Assays:
Glycine--tRNA ligase = target: T1, Glycine--tRNA ligase (Homo sapiens, UniProt P41250)
T1 sequence (P41250 whole entry): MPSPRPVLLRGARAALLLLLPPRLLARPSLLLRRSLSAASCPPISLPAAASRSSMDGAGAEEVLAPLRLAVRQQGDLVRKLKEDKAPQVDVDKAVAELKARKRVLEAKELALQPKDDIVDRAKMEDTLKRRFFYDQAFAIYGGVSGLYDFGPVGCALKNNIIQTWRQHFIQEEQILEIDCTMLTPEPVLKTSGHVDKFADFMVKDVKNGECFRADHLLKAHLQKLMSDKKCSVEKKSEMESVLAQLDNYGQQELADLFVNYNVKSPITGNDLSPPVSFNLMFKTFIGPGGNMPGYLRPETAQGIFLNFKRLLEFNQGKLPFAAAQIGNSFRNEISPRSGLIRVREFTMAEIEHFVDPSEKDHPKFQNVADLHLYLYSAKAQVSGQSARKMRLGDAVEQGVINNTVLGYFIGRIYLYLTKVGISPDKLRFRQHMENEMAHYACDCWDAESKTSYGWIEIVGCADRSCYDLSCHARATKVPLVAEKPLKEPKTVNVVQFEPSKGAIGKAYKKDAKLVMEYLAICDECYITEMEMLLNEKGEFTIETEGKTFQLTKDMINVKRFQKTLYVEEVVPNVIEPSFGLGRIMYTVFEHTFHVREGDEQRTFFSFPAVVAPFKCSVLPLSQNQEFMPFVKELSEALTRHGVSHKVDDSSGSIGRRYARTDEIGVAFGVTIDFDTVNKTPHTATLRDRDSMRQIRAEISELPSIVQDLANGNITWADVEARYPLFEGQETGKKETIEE

[1] = target: Casein kinase I isoform gamma-1 (Homo sapiens, UniProt Q9HCP0)
[2] = target: T2, ATP-dependent RNA helicase DDX42 (Homo sapiens, UniProt Q86XP3)
T2 sequence (Q86XP3 whole entry): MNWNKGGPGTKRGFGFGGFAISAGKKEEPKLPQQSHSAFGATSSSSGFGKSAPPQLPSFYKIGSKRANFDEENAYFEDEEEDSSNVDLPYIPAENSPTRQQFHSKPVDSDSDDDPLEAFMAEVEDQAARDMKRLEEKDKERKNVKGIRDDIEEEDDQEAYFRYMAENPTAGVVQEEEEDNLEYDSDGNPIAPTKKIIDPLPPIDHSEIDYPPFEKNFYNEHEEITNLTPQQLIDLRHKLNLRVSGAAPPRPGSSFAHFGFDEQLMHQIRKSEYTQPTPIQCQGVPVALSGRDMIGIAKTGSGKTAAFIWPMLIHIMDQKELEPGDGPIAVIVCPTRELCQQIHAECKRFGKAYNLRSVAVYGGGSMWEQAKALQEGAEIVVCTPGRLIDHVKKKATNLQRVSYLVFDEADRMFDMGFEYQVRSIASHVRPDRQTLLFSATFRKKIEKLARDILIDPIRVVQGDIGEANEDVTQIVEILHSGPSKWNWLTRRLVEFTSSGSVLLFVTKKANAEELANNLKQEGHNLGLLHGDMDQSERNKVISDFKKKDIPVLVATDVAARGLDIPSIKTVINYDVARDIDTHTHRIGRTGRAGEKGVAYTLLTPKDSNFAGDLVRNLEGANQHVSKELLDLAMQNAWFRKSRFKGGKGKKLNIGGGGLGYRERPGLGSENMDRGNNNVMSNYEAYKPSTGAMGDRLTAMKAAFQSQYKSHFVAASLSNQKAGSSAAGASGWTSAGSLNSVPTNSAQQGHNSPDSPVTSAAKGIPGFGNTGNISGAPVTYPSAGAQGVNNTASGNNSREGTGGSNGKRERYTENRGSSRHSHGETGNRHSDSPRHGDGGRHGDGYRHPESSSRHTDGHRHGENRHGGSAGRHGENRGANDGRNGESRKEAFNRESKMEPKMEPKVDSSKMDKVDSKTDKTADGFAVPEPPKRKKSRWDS

Activin receptor type-2B = Activin receptor type-2B (Homo sapiens, UniProt Q13705)
Rab-like protein 3 = target: T3, Rab-like protein 3 (Homo sapiens, UniProt Q5HYI8)
T3 sequence (Q5HYI8 whole entry): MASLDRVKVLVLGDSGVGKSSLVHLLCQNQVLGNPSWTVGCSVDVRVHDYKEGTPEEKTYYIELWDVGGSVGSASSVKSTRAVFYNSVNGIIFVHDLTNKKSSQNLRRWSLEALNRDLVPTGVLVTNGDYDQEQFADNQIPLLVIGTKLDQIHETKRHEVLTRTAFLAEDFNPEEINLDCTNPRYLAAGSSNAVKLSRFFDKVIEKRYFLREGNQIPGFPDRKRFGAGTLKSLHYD

[3] = target: Mitogen-activated protein kinase 10 (Homo sapiens, UniProt P53779)
[4] = target: Tyrosine-protein kinase Fyn (Homo sapiens, UniProt P06241)
[5] = target: T4, cGMP-dependent protein kinase 1 (Homo sapiens, UniProt Q13976)
T4 sequence (Q13976 whole entry): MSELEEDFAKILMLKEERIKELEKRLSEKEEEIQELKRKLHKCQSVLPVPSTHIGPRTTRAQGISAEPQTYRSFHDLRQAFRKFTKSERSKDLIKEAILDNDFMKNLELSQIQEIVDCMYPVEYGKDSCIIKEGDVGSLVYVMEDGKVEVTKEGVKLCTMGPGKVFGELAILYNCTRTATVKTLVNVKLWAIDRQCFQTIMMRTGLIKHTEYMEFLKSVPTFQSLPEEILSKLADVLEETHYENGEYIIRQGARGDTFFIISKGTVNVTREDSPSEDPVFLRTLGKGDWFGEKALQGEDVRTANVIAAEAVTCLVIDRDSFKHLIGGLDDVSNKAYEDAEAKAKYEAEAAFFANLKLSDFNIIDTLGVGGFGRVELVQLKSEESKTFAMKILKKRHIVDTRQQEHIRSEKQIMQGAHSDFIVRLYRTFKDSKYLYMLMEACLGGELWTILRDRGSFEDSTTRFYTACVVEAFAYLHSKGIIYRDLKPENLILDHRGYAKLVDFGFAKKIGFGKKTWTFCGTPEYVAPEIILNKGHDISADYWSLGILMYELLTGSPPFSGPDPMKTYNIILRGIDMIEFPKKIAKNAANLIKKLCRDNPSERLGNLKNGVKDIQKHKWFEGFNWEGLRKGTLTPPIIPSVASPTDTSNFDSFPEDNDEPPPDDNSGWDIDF

[6] = target: Epidermal growth factor receptor (Homo sapiens, UniProt P00533)
[7] = target: Macrophage-stimulating protein receptor (Homo sapiens, UniProt Q04912)
[8] = target: Ribosomal protein S6 kinase alpha-3 (Homo sapiens, UniProt P51812)
Further: in the data inactive means no Kd found up to 30 µM.

Chain of Ribosomal protein S6 kinase alpha-3 (P51812 whole entry): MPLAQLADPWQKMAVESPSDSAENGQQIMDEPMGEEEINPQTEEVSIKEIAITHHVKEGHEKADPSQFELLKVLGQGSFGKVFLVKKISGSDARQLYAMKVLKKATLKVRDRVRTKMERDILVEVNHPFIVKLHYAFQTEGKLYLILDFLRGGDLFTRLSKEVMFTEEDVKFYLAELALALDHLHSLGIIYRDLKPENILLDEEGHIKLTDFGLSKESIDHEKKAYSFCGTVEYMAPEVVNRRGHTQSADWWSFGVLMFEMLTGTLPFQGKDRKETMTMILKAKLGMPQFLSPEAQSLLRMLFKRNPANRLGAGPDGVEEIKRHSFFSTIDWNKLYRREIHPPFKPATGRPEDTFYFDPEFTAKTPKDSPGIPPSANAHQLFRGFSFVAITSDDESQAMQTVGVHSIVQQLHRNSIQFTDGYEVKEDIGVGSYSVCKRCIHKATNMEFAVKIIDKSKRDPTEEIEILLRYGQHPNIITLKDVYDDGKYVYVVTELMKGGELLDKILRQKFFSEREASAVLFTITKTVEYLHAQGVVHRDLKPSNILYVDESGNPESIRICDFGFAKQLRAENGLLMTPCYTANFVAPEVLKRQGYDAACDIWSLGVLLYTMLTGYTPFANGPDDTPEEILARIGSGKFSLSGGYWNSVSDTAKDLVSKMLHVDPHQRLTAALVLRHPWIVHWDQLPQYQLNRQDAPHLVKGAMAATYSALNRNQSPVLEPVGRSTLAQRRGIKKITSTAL
Chain of Activin receptor type-2B (Q13705 whole entry): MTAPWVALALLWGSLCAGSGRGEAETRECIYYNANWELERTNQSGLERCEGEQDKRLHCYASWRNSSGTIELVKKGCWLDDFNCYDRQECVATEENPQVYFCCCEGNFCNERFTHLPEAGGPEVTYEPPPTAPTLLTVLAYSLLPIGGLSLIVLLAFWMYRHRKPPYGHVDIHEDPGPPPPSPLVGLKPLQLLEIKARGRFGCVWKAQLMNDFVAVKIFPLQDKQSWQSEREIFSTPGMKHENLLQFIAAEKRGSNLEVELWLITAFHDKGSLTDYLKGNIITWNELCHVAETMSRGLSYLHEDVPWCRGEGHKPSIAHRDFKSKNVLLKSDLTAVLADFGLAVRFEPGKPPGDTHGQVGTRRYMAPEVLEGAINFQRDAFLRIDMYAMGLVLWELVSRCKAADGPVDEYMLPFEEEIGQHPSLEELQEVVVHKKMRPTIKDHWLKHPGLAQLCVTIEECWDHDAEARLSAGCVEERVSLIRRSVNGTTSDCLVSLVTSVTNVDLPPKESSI
Chain of Macrophage-stimulating protein receptor (Q04912 25-304 limits assumed): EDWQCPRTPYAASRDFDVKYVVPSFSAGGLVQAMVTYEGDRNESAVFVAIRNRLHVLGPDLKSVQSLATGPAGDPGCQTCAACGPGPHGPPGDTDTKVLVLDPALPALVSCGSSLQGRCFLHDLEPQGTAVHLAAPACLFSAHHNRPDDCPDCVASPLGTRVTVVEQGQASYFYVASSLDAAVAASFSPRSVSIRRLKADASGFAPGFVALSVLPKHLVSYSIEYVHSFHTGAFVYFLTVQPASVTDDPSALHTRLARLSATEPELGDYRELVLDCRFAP
Chain of Macrophage-stimulating protein receptor (Q04912 310-1400 limits assumed): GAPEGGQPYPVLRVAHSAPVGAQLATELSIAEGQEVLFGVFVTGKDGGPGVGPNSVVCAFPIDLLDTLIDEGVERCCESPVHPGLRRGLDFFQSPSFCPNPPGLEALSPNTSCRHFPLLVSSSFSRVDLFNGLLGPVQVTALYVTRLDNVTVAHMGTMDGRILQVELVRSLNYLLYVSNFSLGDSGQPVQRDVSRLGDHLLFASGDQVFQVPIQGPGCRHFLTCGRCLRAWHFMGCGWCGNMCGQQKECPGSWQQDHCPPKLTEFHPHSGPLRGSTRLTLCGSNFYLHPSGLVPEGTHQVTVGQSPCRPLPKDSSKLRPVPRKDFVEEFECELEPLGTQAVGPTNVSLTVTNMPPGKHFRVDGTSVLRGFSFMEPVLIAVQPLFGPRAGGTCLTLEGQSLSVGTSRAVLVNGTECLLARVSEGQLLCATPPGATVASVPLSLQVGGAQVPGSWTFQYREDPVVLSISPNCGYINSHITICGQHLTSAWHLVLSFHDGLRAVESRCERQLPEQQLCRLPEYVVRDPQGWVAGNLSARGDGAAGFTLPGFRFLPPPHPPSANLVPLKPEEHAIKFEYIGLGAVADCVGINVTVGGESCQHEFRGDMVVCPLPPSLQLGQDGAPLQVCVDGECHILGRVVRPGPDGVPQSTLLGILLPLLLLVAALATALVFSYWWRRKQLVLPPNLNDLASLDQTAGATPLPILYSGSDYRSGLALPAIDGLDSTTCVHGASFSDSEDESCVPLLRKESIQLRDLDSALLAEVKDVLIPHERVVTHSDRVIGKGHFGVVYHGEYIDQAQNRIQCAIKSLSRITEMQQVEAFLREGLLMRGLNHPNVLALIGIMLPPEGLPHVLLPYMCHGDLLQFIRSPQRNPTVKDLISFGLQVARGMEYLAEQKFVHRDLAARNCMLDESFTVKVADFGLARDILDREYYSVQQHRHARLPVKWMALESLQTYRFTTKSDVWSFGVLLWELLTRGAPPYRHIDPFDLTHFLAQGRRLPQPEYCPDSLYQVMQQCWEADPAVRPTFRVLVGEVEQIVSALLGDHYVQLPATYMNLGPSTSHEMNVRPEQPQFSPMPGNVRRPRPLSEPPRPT
Chain of Mitogen-activated protein kinase 10 (P53779 whole entry): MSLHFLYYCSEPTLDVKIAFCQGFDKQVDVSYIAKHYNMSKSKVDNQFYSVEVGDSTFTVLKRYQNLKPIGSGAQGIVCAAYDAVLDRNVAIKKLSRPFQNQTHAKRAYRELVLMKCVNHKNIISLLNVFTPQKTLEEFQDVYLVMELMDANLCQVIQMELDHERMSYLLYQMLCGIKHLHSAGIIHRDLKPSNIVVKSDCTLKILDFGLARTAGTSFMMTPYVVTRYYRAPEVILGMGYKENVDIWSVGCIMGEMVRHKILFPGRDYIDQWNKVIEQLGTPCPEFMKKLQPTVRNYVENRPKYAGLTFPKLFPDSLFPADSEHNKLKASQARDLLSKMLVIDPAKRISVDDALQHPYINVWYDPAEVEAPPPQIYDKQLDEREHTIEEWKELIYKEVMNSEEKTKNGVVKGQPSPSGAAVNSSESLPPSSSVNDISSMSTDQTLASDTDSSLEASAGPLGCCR
Chain of Tyrosine-protein kinase Fyn (P06241 whole entry): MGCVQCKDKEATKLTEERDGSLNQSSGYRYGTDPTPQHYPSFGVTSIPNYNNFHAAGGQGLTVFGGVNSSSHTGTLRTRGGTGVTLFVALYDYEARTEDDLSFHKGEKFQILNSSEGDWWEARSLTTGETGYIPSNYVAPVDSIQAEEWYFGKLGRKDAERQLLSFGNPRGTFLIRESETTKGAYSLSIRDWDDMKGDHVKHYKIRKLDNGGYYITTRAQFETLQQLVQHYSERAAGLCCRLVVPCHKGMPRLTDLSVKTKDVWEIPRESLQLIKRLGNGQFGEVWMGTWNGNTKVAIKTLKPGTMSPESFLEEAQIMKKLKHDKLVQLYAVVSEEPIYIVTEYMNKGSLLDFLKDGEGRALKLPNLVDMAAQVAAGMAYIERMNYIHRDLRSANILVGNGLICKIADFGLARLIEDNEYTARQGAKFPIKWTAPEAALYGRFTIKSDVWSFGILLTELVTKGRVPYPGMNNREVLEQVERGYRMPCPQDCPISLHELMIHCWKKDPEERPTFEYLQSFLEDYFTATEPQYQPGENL
Chain of Casein kinase I isoform gamma-1 (Q9HCP0 whole entry, canonical isoform): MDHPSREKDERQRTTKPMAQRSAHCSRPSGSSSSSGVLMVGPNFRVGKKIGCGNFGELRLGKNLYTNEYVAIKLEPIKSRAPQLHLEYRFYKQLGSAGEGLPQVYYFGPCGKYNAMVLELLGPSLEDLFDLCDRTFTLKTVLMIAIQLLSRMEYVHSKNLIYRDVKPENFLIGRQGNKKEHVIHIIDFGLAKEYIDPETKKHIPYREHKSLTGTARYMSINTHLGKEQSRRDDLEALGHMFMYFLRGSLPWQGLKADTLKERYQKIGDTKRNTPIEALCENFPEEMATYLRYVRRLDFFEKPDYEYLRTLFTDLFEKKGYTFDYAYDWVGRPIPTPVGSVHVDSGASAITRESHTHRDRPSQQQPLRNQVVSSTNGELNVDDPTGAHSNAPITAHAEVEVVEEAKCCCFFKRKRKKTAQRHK

| SMILES | Kd (Glycine--tRNA ligase) | Kd [1] | Kd [2] | Kd (Activin receptor type-2B) | Kd (Rab-like protein 3) | Kd [3] | Kd [4] | Kd [5] | Kd [6] | Kd [7] | Kd [8] |
| --- | --- | --- | --- | --- | --- | --- | --- | --- | --- | --- | --- |
| Cn1cnc2c(F)c(Nc3ccc(Br)cc3F)c(C(=O)NOCCO)cc21 [BINIMETINIB] | > 30 µM (inactive) | > 30 µM (inactive) | > 30 µM (inactive) | > 30 µM (inactive) | > 30 µM (inactive) | > 30 µM (inactive) | > 30 µM (inactive) | > 30 µM (inactive) | > 30 µM (inactive) | > 30 µM (inactive) | > 30 µM (inactive) |
| CCn1c(C(=O)N(C2CC2)C2CC2)cc2c3c(ncn3C)c(Nc3cc(C)n(C)n3)nc21 [BMS-911543] | > 30 µM (inactive) | > 30 µM (inactive) | > 30 µM (inactive) | > 30 µM (inactive) | > 30 µM (inactive) | > 30 µM (inactive) | > 30 µM (inactive) | > 30 µM (inactive) | > 30 µM (inactive) | > 30 µM (inactive) | > 30 µM (inactive) |
| COc1c(OCCCN2CCOCC2)ccc2c1N=C(NC(=O)c1cnc(N)nc1)N1CCN=C21 [COPANLISIB] | > 30 µM (inactive) | > 30 µM (inactive) | > 30 µM (inactive) | > 30 µM (inactive) | > 30 µM (inactive) | > 30 µM (inactive) | > 30 µM (inactive) | > 30 µM (inactive) | > 30 µM (inactive) | > 30 µM (inactive) | > 30 µM (inactive) |
| Cc1nc2cc(-n3ncc(C(=O)c4cc5ccccc5[nH]4)c3N)ccc2[nH]1 [FGFR INHIBITOR DEBIO 1347] | > 30 µM (inactive) | > 30 µM (inactive) | > 30 µM (inactive) | > 30 µM (inactive) | > 30 µM (inactive) | > 30 µM (inactive) | > 30 µM (inactive) | > 30 µM (inactive) | > 30 µM (inactive) | > 30 µM (inactive) | > 30 µM (inactive) |
| O=C(Nc1nc2cccc(-c3ccc(CN4CCS(=O)(=O)CC4)cc3)n2n1)C1CC1 [FILGOTINIB] | > 30 µM (inactive) | > 30 µM (inactive) | > 30 µM (inactive) | > 30 µM (inactive) | > 30 µM (inactive) | 2.14 µM (active) | > 30 µM (inactive) | > 30 µM (inactive) | > 30 µM (inactive) | > 30 µM (inactive) | > 30 µM (inactive) |
| Cc1cccc(-c2nn3c(c2-c2ccnc4ccc(C(N)=O)cc24)CCC3)n1 [GALUNISERTIB] | > 30 µM (inactive) | > 30 µM (inactive) | > 30 µM (inactive) | > 30 µM (inactive) | > 30 µM (inactive) | > 30 µM (inactive) | > 30 µM (inactive) | > 30 µM (inactive) | > 30 µM (inactive) | > 30 µM (inactive) | > 30 µM (inactive) |
| O=C(Nc1cc(C(F)(F)F)cc(C(F)(F)F)c1)c1cc(Cl)ccc1O [IMD-0354] | > 30 µM (inactive) | > 30 µM (inactive) | > 30 µM (inactive) | > 30 µM (inactive) | > 30 µM (inactive) | > 30 µM (inactive) | > 30 µM (inactive) | > 30 µM (inactive) | > 30 µM (inactive) | > 30 µM (inactive) | > 30 µM (inactive) |
| NC1(c2ccc(-c3nc4ccn5c(=O)[nH]nc5c4cc3-c3ccccc3)cc2)CCC1 [MK-2206] | > 30 µM (inactive) | > 30 µM (inactive) | > 30 µM (inactive) | > 30 µM (inactive) | > 30 µM (inactive) | > 30 µM (inactive) | > 30 µM (inactive) | > 30 µM (inactive) | > 30 µM (inactive) | > 30 µM (inactive) | > 30 µM (inactive) |
| CN(C[C@@H]1COCCO1)S(=O)(=O)Nc1ccc2ccc3ncc(-c4cnn(C)c4)cc3c(=O)c2c1 [MK-2461] | > 30 µM (inactive) | > 30 µM (inactive) | > 30 µM (inactive) | > 30 µM (inactive) | > 30 µM (inactive) | 4.7 µM (active) | > 30 µM (inactive) | > 30 µM (inactive) | > 30 µM (inactive) | 0.278 µM (active) | > 30 µM (inactive) |
| Cn1cc(-c2cnc3ccc4ccc(CS(=O)(=O)NCc5ccccn5)cc4c(=O)c3c2)cn1 [MK-8033] | > 30 µM (inactive) | > 30 µM (inactive) | > 30 µM (inactive) | > 30 µM (inactive) | > 30 µM (inactive) | > 30 µM (inactive) | > 30 µM (inactive) | > 30 µM (inactive) | > 30 µM (inactive) | 0.956 µM (active) | > 30 µM (inactive) |
| CCCCCCCCCCCCCCCCCCOP(=O)([O-])OC1CC[N+](C)(C)CC1 [PERIFOSINE] | > 30 µM (inactive) | > 30 µM (inactive) | > 30 µM (inactive) | > 30 µM (inactive) | > 30 µM (inactive) | > 30 µM (inactive) | > 30 µM (inactive) | > 30 µM (inactive) | > 30 µM (inactive) | > 30 µM (inactive) | > 30 µM (inactive) |
| Cc1nc(Nc2n[nH]c3c2CN(C(=O)N[C@H](CN(C)C)c2ccccc2)C3(C)C)c2sccc2n1 [PF-03758309] | > 30 µM (inactive) | > 30 µM (inactive) | > 30 µM (inactive) | > 30 µM (inactive) | > 30 µM (inactive) | > 30 µM (inactive) | 1.23 µM (active) | 0.808 µM (active) | > 30 µM (inactive) | > 30 µM (inactive) | 0.1 µM (active) |
